What was measured:
[1] = target: T1, human recombinant trypsin (rh-trypsin) (Homo sapiens, UniProt P07477); test: Trypsin inhibitory activity, human recombinant trypsin, BZiPAR fluorescent substrate; type: biochemical; settings: 30 min at room temperature, read-out: r-h Trypsin inhibitory activity (IC50)
T1 construct: purchased Wako Pure Chemical Industries, Ltd. 206-17171
Procedure: (§1) 1. Confirmation of Trypsin Inhibitory Activity in Humans and Mice In the experiment, human recombinant trypsin (rh-trypsin; manufactured by Wako Pure Chemical Industries, Ltd.), cat. #206-17171) and mouse trypsin (m-trypsin; purified from the mouse small intestine contents by the present inventors) were used. The method for purifying m-trypsin from the contents of the mouse small intestine is shown below. The compound was dissolved in dimethyl sulfoxide (DMSO), and diluted to an arbitrary concentration (A). A was 100-fold diluted with a buffer (0.1 M Tris (pH 8.0), 0.15 M NaCl, 10 mM CaCl2, 0.05% Brij35) (B). The rh-trypsin was diluted with a buffer to 0.088 μg/mL, and for the m-trypsin, the purified fraction liquid was 50-fold diluted with the buffer (C). […] A BZiPAR solution (Rhodamine Reference Substrate) which is substrate for the trypsin enzyme was diluted with the buffer to […] (D). 5 μL of B, 5 μL of C, and 10 μL of D were added to a 384-well plate, and incubated at room temperature for 30 minutes. Fluorescent signals were detected at a maximum excitement (Ex)/fluorescent wavelength (Em)=497 nm/520 nm using a Tecan Safire Fluorometer. […] Based on the obtained inhibitory rates, the trypsin inhibitory activities (IC50 values, nM) were calculated from the non-linear regression.

[2] = tested on: T2, mouse trypsin (m-trypsin); test: Trypsin inhibitory activity, mouse trypsin purified from small intestine contents, BZiPAR fluorescent substrate; type: biochemical; settings: 30 min at room temperature
T2 construct: mouse trypsin (m-trypsin)
From the text: 1. Confirmation of Trypsin Inhibitory Activity in Humans and Mice
In the experiment, human recombinant trypsin (rh-trypsin; manufactured by Wako Pure Chemical Industries, Ltd.), cat. #206-17171) and mouse trypsin (m-trypsin; purified from the mouse small intestine contents by the present inventors) were used. The method for purifying m-trypsin from the contents of the mouse small intestine is shown below.
The small intestine contents and the gastrointestinal tract obtained from 10 mice were homogenized in phosphate buffer saline (PBS) using Polytron, and subjected to centrifugation several times at 15,000×g for 10 minutes. The supernatant was mixed at 4° C. for 16 hours with a Benzamidine Sepharose 4 Fast Flow Resin (GE Healthcare: #17-5123-10). After washing the resin with PBS, m-trypsin was eluted with a glycine buffer (pH 3.0) to carry out purification. It was confirmed by Western blot analysis that the obtained purified fraction was recognized as an Anti-mouse Trypsin Antibody (Santa Cruz Biotechnology, Inc.: sc-67388). The method for measuring the trypsin inhibiting activity is shown below.
as §1, with “The” for “1. Confirmation of Trypsin Inhibitory Activity in Humans and Mice In the experiment, human recombinant trypsin (rh-trypsin; manufactured by Wako Pure Chemical Industries, Ltd.), cat. #206-17171) and mouse trypsin (m-trypsin; purified from the mouse small intestine contents by the present inventors) were used. The method for purifying m-trypsin from the contents of the mouse small intestine is shown below. The”

ICR mice = test: Test of increase in fecal protein concentration using mice; type: in vivo, mouse; settings: Mus musculus, po, 9 h, 5 mg/kg oral, male ICR mice, feces collected 3 to 9 hours after feeding started, control group = 1; read-out: Fecal protein, Folds (vs. control)
Procedure: 2. Test of Increase in Fecal Protein Concentration Using Mice
For the experiment, 6-week old male ICR mice were used. The experiment was carried out in five mice per group. After fasting the mice for 15 hours, the control group was forcibly orally administered with a 0.5% methyl cellulose (MC) solution, and the test drug group was forcibly orally administered (5 mg/kg) with a solution or suspension obtained by dissolving or suspending the compound in the 0.5% MC solution. The fasting was stopped immediately thereafter, free feeding (CE-2) was started, and then the feces were collected from after 3 hours to after 9 hours, and weighed. All of the obtained feces were suspended in 6 mL of distilled water, and centrifuged at 1,940×g for 10 minutes. The protein concentration in the obtained supernatant was measured by a Bradford method, and the amount of the protein in 1 g of feces was calculated by dividing the protein concentration in the feces by the total weight of feces. Further, the efficacy was investigated from the ratio to the control group. For the compounds that were evaluated multiple times, the average values were calculated.
The results of the activities with an increase in Fecal Protein, assuming a value for the control group as 1, are shown in Table 2.

SMILES	IC50 [1]	IC50 [2]	response vs control in vivo at 5 mg/kg (ICR mice)
N=C(N)Nc1ccc(C(=O)Oc2ccc3c(C(=O)N(CCC(=O)O)Cc4csc(C(=O)O)c4)cccc3c2)cc1 [Example 43]	0.17 nM	0.19 nM	198%
N=C(N)Nc1ccc(C(=O)Oc2ccc3c(c2)CCC(C(=O)N[C@@H](Cc2ccc(C(=O)O)cc2)C(=O)O)C3)cc1 (stereo partly drawn) [Example 35]	0.37 nM	0.42 nM	159%
N=C(N)Nc1ccc(C(=O)Oc2ccc3c(C(=O)N(CC(=O)O)Cc4ccc(CC(=O)O)cc4)cccc3c2)cc1 [Example 17]	0.22 nM	0.27 nM	270%
N=C(N)Nc1ccc(C(=O)Oc2ccc3cc(C(=O)N(CCC(=O)O)Cc4csc(C(=O)O)c4)ccc3c2)cc1 [Example 56]	0.35 nM	0.59 nM	145%
N=C(N)Nc1ccc(C(=O)Oc2ccc3cc(C(=O)N(CC(=O)O)Cc4csc(C(=O)O)c4)sc3c2)cc1 [Example 59]	0.71 nM	0.87 nM	164%
N=C(N)Nc1ccc(C(=O)Oc2ccc3c(c2)CCCC3CC(=O)N(CC(=O)O)Cc2cccc(C(=O)O)c2)cc1 (single isomer, unassigned) [Example 5, 3-{[({(1R)-6-[(4-carbamimidamidobenzoyl)oxy]-1,2,3,4-tetrahydronaphthalen-1-yl}acetyl)(carboxymethyl)amino]methyl}benzoic acid or an enantiomer thereof]	0.19 nM	0.27 nM	188%
N=C(N)Nc1ccc(C(=O)Oc2ccc3c(C(=O)N(CC(=O)O)[C@@H](Cc4ccccc4)C(=O)O)cccc3c2)cc1 [Example 40]	0.29 nM	0.27 nM	189%
N=C(N)Nc1ccc(C(=O)Oc2ccc3c(c2)CCCC3CC(=O)N(CC(=O)O)Cc2csc(CC(=O)O)c2)cc1 (stereo not drawn) [Example 38]	0.26 nM	0.23 nM	191%
N=C(N)Nc1ccc(C(=O)Oc2ccc3c(c2)CCCC3CC(=O)N(CC(=O)O)Cc2ccc3sc(C(=O)O)cc3c2)cc1 (stereo not drawn) [Example 25]	0.28 nM	0.35 nM	135%
C[C@H](C(=O)O)N(Cc1csc(C(=O)O)c1)C(=O)CC1CCCc2cc(OC(=O)c3ccc(NC(=N)N)cc3)ccc21 (stereo partly drawn) [Example 19]	0.39 nM	0.6 nM	251%
N=C(N)Nc1ccc(C(=O)Oc2ccc3cc(C(=O)N(CC(=O)O)Cc4cccc(C(=O)O)c4)ccc3c2)cc1 [Example 14]	0.23 nM	0.26 nM	179%
N=C(N)Nc1ccc(C(=O)Oc2ccc3cc(C(=O)N(CC(=O)O)[C@@H](Cc4ccccc4)C(=O)O)ccc3c2)cc1 [Example 39]	0.18 nM	0.13 nM	108%
N=C(N)Nc1ccc(C(=O)Oc2ccc3cc(C(=O)N(CC(=O)O)Cc4ccc5sc(C(=O)O)cc5c4)ccc3c2)cc1 [Example 33]	0.18 nM	0.16 nM	139%
N=C(N)Nc1ccc(C(=O)Oc2ccc3c(C(=O)N(CC(=O)O)Cc4ccc5sc(C(=O)O)cc5c4)csc3c2)cc1 [Example 32]	0.15 nM	0.14 nM	190%
N=C(N)Nc1ccc(C(=O)Oc2ccc3c(c2)CCCC3CC(=O)N[C@@H](Cc2ccc(C(=O)O)cc2)C(=O)O)cc1 (stereo partly drawn) [Example 36]	0.26 nM	0.28 nM	190%
N=C(N)Nc1ccc(C(=O)Oc2ccc3c(c2)CCC(C(=O)N(CC(=O)O)Cc2cccc(C(=O)O)c2)C3)cc1 (stereo not drawn) [Example 58]	0.68 nM	0.74 nM	218%
N=C(N)Nc1ccc(C(=O)Oc2ccc3c(c2)CCCC3CC(=O)N(CC(=O)O)[C@@H](Cc2ccccc2)C(=O)O)cc1 (stereo partly drawn) [Example 22]	0.34 nM	0.44 nM	215%

Source: US9969709B2, “Guanidinobenzoic acid ester compound” (Takeda Pharmaceutical Company Limited, priority 2013, dated 2018)
